# Values quoted from earlier work as cited in patent US9756853B2, “Solid pesticidal formulation” (priority 2013, dated 2017).
# Settings: 20° C.
structure (smiles),measurement,value
CN/C(=N/CC1CCOC1)N[N+](=O)[O-] (stereo not shown) [dinotefuran],solubility in water,40 mg/mL
